Experimental data published in PubChem BioAssay AID2060491 (Molecular Pharmacology Branch, DTP, NCI, 2025).
Several values for one entry are separate records, joined by “and”; a condition that tells them apart may be missing. Equal entries are not always repeated.

Tested on: 857933-349-R-J2-PDC complex spheroids, viability
Assay: Anticancer human tumor 857933-349-R-J2-PDC patient-derived colon adenocarcinoma cell line growth inhibition [GQUAD]
Settings: for viability, T/C: stronger effect = lower value; active = viability on the fitted dose curve at most 10% of control; inactive = the rest
Source text: DNA G-quadruplex Stabilizer Agents in Combinations in Complex Spheroids
A high-throughput screen of multi-cell type tumor spheroids was designed to identify active combinations of DNA G-quadruplex stabilizer agents and targeted small molecules. Complex spheroids include a stromal component modeled by human endothelial cells (HUVEC) and fibroblasts modeled by human mesenchymal stem cells (MSCs). The concentration ranges selected for each drug and investigational agent were based upon clinically achievable concentrations if the clinical Cmax of the agent was known.
Compounds. The drugs and investigational agents: pidnarulex (CX-5461; NSC782164), APTO-253 (NSC789042), BRACO-19 (NSC847499), peposertib (NSC802822), ceralasertib (NSC780249), elimusertib (NSC800525), camonsertib (NSC841442), AZD-1390 (NSC803789), olaparib (NSC753686), talazoparib (NSC767125), ART-558 (NSC835418), sotorasib (NSC818433), MRTX-1133 (NSC836407), SN-38 (NSC673596), topotecan (NSC609699), etoposide (NSC141540), doxorubicin (NSC123127), gemcitabine (NSC613327), 5-fluorouracil (NSC19893), paclitaxel (NSC125973), vemurafenib (NSC761431), panobinostat (NSC761190), R-306465 (JNJ-16241199; NSC773264), adavosertib (NSC754352), TP-3654 (NSC805149), carboplatin (NSC241240), KSQ-4279 (NSC840948), and staurosporine (NSC755774) were obtained from the National Cancer Institute (NCI) Developmental Therapeutics Program Chemical Repository (34). The FDA-approved anticancer drug set is available from the NCI Developmental Therapeutics Program. […] The stock solutions were prepared in dimethyl sulfoxide (DMSO, Sigma-Aldrich, St. Louis, MO, cat. D2650) at 800-fold the tested concentration and stored at -70 degrees C prior to their use. All drugs and investigational agents were tested over a range starting from a high concentration at or near the clinical Cmax and decreasing in half-log increments. If the clinical Cmax for an agent had not been determined, the highest concentration tested was 10 microM.
2.3 Cell Culture. All cells were maintained in an incubator at 37 degrees C and 5% CO2 with 95% humidity. The PDC lines were cultured according to standard operating procedures established by the NCI PDMR. All PDCs were thawed and cultured in Matrigel-coated flasks prepared with a working solution of 1X Ham's F-12 nutrient mix, without supplementation (Invitrogen, cat. 11765054), 100 U/mL penicillin-streptomycin (Invitrogen, cat. 15140122), and 2.5% Matrigel (Corning Inc., cat. 354248) for the first three passages. The 857933-349-R-J2-PDC line was cultured in 6C/Colon 1B media, which includes advanced DMEM/F-12 (Thermo Fisher Scientific, cat. 12634028), 10 mM HEPES (Thermo Fisher Scientific, cat. 15630080), 1X GlutaMAX supplement (Thermo Fisher Scientific, cat. 35050061), 0.1 mg/mL primocin (InvivoGen, cat. ant-pm-2), 10% defined fetal bovine serum, heat inactivated (HyClone Laboratories Inc., cat. SH30070.03HI), 50% L-WRN conditioned media (ATCC, cat. CRL-3276), 1.25 mM N-Acetyl-L-cysteine (Sigma-Aldrich, cat. A9165), 10 mM nicotinamide (Sigma-Aldrich, cat. N0636), 1X B-27 supplement (Thermo Fisher Scientific, cat. 17504044), 1X N-2 supplement (Thermo Fisher Scientific, cat. 17502048), 10 microM Y-27632 dihydrochloride (Tocris Bioscience, cat. 1254), and 50 ng/mL human EGF recombinant protein (Thermo Fisher Scientific, cat. PHG0311). The 485176-168-R4-J1-PDC line was cultured in Panc media, which includes all 6C/Colon 1B media components plus 100 ng/mL human FGF-10 (Thermo Fisher Scientific, cat. 100-26), 500 nM SB-431542 (Selleckchem, cat. S1067), and gastrin (Tocris, cat. 3006).
[…]
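Note: spheroids exposed to compounds for one week before readout.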
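Throughout, for viability, T/C: percent viability relative to vehicle DMSO wells taken as 100%.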

CC1COCCN1c1cc(C2(S(C)(=N)=O)CC2)nc(-c2ccnc3[nH]ccc23)n1 (centres undefined) + CN(C)c1ccc(Nc2c3ccc(NC(=O)CCN4CCCC4)cc3nc3cc(NC(=O)CCN4CCCC4)ccc23)cc1
inactive: viability, T/C (second compound 0.0316 µM, first compound 0.0316 µM) 104% | viability, T/C (second compound 0.0316 µM, first compound 0.1 µM) 108% | viability, T/C (second compound 0.0316 µM, first compound 0.316 µM) 102% | viability, T/C (second compound 0.0316 µM, first compound 1 µM) 87.7% | viability, T/C (second compound 0.0316 µM, first compound 3.16 µM) 82.4% | viability, T/C (second compound 0.0316 µM, first compound 10 µM) 63.2% | viability, T/C (second compound 0.1 µM, first compound 0.0316 µM) 106% | viability, T/C (second compound 0.1 µM, first compound 0.1 µM) 102% | viability, T/C (second compound 0.1 µM, first compound 0.316 µM) 101% | viability, T/C (second compound 0.1 µM, first compound 1 µM) 94.9% | viability, T/C (second compound 0.1 µM, first compound 3.16 µM) 75.1% | viability, T/C (second compound 0.1 µM, first compound 10 µM) 69.2% | viability, T/C (second compound 0.316 µM, first compound 0.0316 µM) 103% | viability, T/C (second compound 0.316 µM, first compound 0.1 µM) 99.1% | viability, T/C (second compound 0.316 µM, first compound 0.316 µM) 97.8% | viability, T/C (second compound 0.316 µM, first compound 1 µM) 88.8% | viability, T/C (second compound 0.316 µM, first compound 3.16 µM) 86.6% | viability, T/C (second compound 0.316 µM, first compound 10 µM) 66.1% | viability, T/C (second compound 1 µM, first compound 0.0316 µM) 99.2% | viability, T/C (second compound 1 µM, first compound 0.1 µM) 94.6% | viability, T/C (second compound 1 µM, first compound 0.316 µM) 96.4% | viability, T/C (second compound 1 µM, first compound 1 µM) 88% | viability, T/C (second compound 1 µM, first compound 3.16 µM) 82.5% | viability, T/C (second compound 1 µM, first compound 10 µM) 62.7% | viability, T/C (second compound 3.16 µM, first compound 0.0316 µM) 92.3% | viability, T/C (second compound 3.16 µM, first compound 0.1 µM) 84.9% | viability, T/C (second compound 3.16 µM, first compound 0.316 µM) 94.8% | viability, T/C (second compound 3.16 µM, first compound 1 µM) 81.2% | viability, T/C (second compound 3.16 µM, first compound 3.16 µM) 81.6% | viability, T/C (second compound 3.16 µM, first compound 10 µM) 59.6% | viability, T/C (second compound 10 µM, first compound 0.0316 µM) 70.8% | viability, T/C (second compound 10 µM, first compound 0.1 µM) 76.8% | viability, T/C (second compound 10 µM, first compound 0.316 µM) 77.5% | viability, T/C (second compound 10 µM, first compound 1 µM) 78% | viability, T/C (second compound 10 µM, first compound 3.16 µM) 69.8% | viability, T/C (second compound 10 µM, first compound 10 µM) 61.4%
> 10 µM: IC50 (curve of first compound, second compound 0.0316 µM) | IC50 (curve of first compound, second compound 0.1 µM) | IC50 (curve of first compound, second compound 0.316 µM) | IC50 (curve of first compound, second compound 1 µM) | IC50 (curve of first compound, second compound 3.16 µM) | IC50 (curve of first compound, second compound 10 µM)

CCCS(=O)(=O)Nc1ccc(F)c(C(=O)c2c[nH]c3ncc(-c4ccc(Cl)cc4)cc23)c1F
active: viability, T/C (compound 10 µM) 4.82% and 5.71% and 6.52%
inactive: viability, T/C (compound 0.0316 µM) 104% and 111% and 98.5% | viability, T/C (compound 0.1 µM) 97.2% and 102% and 92% | viability, T/C (compound 0.316 µM) 97.4% and 105% and 95.5% | viability, T/C (compound 1 µM) 102% and 101% and 96.5% | viability, T/C (compound 3.16 µM) 84.9% and 90.6% and 95.8%
5.23 µM and 5.49 µM and 5.7 µM: IC50 (curve of compound)
